Structures can show the parent of a compound that is named as a salt. Where two headings read alike, the source gives them in different places.
Experiments:
[1] = molecular target: T1, Nav1.6 (Homo sapiens (Human), UniProt Q9UQD0); assay: Sodium Influx Assay (Flux), Nav1.6; assay type: cell-based; conditions: Trex HEK293 cells, ANG2 dye, inactivated state
[2] = molecular target: T2, Nav1.5 (Homo sapiens (Human), UniProt Q14524)
[3] = molecular target: Nav1.1 (Homo sapiens (Human), UniProt P35498); assay: Sodium Influx Assay (Flux), Nav1.1; assay type: cell-based; conditions: Trex HEK293 cells, ANG2 dye, inactivated state
[4] = molecular target: T1, Nav1.6; assay: Electrophysiological Assay (EP, patch voltage clamp), Nav1.6; assay type: cell-based; conditions: HEK-293 cells stably expressing the channel
Source text: Patch voltage clamp electrophysiology allows for the direct measurement and quantification of block of voltage-gated sodium channels (Nav's), and allows the determination of the time- and voltage-dependence of block which has been interpreted as differential binding to the resting, open, and inactivated states of the sodium channel (Hille, B., Journal of General Physiology (1977), 69: 497-515).
Nav1.1, Nav1.5 and Nav1.6 cDNAs (NM_001165964 (SCN1A), NM_000335 (SCN5A) and NM_014191 (SCN8A), respectively) were stably expressed in HEK-293 cells.
Sodium currents were measured using the patch clamp technique in the whole-cell configuration using either a PatchXpress automated voltage clamp or manually using an Axopatch 200B (Axon Instruments) or Model 2400 (A-M systems) amplifier. The manual voltage clamp protocol was as follows: Borosilicate glass micropipettes were fire-polished to a tip diameter yielding a resistance of 2-4 Mohms in the working solutions. […] In some studies, the external sodium was reduced by equimolar replacement with choline. Osmolarity in the CsF internal and NaCl external solutions was adjusted to 300 mOsm/kg and 310 mOsm/kg with glucose, respectively. All recordings were performed at ambient temperature in a bath chamber with a volume of 150 μL. Control sodium currents were measured in 0.5% DMSO. Controls and representative compounds of the invention were applied to the recording chamber through a 4-pinch or 8-pinch valve bath perfusion system manufactured by ALA Scientific Instruments.
Currents were recorded at 40 kHz sampling frequency, filtered at […], and stored using a Digidata-1322A analogue/digital interface with the pClamp software (Axon Instruments). Series resistance compensation was applied (60-80%). […] All statistics in this study are given as mean±SD.
The membrane potential was maintained at a voltage where inactivation of the channel is complete. The voltage is then stepped back to a very negative (Vhold=−150 mV) voltage for 20 ms and then a test pulse is applied to quantify the compound block. The 20 ms brief repolarization was long enough for compound-free channels to completely recover from fast inactivation, but the compound-bound channels recovered more slowly such that negligible recovery could occur during this interval. The percent decrease in sodium current following wash-on of compound was taken as the percent block of sodium channels.

[5] = molecular target: T2, Nav1.5; assay: Sodium Influx Assay (Flux), Nav1.5; conditions: read-out: Flux NaV1.5 IC50; sodium influx assay, Trex HEK293 cells, ANG2 dye, inactivated state

T2 sequence (Q14524 other isoform, or with tags, fused parts or gaps): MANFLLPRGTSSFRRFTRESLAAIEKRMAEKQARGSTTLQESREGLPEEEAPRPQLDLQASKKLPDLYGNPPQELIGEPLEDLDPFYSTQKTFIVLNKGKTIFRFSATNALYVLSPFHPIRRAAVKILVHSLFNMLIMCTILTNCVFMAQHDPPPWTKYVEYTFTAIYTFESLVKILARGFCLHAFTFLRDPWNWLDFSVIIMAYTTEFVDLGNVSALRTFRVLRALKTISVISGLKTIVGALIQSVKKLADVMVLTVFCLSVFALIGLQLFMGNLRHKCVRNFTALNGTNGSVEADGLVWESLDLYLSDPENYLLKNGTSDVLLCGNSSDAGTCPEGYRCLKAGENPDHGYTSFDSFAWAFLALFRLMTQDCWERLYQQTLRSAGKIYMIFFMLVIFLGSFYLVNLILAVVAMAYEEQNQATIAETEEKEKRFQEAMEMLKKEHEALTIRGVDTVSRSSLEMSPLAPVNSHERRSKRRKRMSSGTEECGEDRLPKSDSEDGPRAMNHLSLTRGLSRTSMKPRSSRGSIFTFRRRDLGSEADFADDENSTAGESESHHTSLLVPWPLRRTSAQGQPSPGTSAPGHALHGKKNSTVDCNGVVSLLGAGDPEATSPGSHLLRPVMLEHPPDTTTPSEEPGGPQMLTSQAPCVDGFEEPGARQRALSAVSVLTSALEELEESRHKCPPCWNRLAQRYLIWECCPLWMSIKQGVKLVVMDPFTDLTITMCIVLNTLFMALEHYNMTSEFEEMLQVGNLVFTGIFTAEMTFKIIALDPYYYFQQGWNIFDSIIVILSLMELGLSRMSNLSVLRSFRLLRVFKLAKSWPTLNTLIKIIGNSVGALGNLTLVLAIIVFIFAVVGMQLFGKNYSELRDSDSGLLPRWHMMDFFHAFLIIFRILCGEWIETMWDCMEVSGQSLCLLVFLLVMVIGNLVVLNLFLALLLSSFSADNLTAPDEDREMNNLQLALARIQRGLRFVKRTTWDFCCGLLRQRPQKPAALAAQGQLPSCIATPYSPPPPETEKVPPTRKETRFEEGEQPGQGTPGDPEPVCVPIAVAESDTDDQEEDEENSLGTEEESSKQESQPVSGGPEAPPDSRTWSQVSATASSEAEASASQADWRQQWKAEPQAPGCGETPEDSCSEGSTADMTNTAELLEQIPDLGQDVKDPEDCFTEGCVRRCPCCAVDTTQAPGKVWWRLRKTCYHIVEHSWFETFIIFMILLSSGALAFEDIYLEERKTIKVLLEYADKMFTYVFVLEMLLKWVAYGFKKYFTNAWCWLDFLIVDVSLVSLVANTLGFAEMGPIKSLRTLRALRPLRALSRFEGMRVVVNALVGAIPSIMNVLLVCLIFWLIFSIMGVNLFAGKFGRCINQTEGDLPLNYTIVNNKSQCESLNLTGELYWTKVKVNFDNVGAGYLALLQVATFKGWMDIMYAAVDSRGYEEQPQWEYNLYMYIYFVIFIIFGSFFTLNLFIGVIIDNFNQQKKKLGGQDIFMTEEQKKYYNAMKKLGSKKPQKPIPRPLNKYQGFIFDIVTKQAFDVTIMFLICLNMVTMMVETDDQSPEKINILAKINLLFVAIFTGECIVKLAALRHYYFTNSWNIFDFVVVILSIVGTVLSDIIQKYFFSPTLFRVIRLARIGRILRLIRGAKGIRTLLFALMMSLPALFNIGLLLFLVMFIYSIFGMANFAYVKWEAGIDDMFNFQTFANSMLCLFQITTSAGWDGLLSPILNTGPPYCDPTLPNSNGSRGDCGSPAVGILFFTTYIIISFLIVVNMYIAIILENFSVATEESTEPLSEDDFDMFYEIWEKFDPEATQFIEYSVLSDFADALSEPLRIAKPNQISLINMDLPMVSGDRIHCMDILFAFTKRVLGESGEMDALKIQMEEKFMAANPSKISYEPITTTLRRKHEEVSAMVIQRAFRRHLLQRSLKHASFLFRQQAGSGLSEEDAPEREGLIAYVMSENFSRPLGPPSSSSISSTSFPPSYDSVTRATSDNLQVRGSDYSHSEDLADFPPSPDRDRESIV
T1 sequence (Q9UQD0 whole entry): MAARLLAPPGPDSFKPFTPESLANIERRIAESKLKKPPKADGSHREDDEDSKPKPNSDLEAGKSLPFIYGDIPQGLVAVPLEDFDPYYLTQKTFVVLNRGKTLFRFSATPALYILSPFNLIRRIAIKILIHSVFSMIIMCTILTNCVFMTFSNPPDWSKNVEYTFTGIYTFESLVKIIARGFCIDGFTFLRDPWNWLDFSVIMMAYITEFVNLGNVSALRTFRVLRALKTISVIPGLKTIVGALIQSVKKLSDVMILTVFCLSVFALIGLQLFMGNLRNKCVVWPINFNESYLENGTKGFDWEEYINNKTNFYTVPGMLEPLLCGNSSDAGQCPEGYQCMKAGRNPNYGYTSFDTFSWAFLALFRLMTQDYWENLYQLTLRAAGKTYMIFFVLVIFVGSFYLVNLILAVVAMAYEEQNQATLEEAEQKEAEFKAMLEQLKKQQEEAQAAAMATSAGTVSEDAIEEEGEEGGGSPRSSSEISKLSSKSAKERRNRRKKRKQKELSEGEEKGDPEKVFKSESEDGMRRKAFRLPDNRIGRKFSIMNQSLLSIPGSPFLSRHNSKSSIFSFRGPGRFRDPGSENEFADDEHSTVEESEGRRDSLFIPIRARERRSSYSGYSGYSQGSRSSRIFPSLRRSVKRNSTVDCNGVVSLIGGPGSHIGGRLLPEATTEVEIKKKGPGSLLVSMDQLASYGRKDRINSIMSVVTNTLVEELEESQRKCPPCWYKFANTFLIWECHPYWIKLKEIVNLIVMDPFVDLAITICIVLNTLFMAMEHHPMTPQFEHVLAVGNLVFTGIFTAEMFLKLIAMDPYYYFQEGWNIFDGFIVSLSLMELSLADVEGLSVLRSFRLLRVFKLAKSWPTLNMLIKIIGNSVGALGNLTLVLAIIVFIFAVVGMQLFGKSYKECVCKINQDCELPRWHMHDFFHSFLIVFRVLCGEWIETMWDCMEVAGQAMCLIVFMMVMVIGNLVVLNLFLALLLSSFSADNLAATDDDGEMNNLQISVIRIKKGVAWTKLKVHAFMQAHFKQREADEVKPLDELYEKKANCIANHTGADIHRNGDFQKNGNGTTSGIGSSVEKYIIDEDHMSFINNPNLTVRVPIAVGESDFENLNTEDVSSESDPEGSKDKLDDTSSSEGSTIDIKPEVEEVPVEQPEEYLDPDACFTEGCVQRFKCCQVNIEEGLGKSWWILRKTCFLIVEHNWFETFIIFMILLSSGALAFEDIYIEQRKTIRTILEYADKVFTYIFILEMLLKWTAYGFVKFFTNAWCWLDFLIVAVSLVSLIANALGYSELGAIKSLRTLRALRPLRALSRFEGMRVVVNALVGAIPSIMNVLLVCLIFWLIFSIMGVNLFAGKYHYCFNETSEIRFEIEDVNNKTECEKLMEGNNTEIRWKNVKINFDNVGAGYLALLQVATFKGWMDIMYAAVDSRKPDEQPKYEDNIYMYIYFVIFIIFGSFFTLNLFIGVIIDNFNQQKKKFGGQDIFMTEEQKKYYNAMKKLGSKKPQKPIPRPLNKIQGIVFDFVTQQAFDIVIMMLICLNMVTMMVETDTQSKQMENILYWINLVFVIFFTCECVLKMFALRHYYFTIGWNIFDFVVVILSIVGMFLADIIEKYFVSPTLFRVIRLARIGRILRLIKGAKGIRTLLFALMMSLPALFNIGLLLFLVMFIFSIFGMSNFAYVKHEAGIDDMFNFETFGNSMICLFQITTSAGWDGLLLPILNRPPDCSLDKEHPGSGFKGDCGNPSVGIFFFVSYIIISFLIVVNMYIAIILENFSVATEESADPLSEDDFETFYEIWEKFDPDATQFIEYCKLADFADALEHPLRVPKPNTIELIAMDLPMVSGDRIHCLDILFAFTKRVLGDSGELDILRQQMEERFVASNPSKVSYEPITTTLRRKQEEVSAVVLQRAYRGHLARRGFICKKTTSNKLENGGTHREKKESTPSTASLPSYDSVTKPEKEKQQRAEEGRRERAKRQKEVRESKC

IC50 [4] [µM] | Compound | IC50 [1] [µM] | IC50 [2] [µM] | IC50 [3] [µM] | IC50 [5] [µM]
– | Cc1nc(S(=O)(=O)Nc2cscn2)ccc1NCc1c(F)cccc1CN1C2CCC1CC2 [Example 25, 5-((2-((7-azabicyclo[2.2.1]heptan-7-yl)methyl)-6-fluorobenzyl)amino)-6-methyl-N-(thiazol-4-yl)pyridine-2-sulfonamide trifluoroacetic acid salt] | 0.154 | 30 | 30 | –
– | Cc1nc(S(=O)(=O)Nc2cscn2)c(F)cc1NCc1c(F)cccc1CN1C2CCC1CC2 [Example 33, 5-((2-((azabicyclo[2.2.1]heptan-7-yl)methyl)-6-fluorobenzyl)amino)-3-fluoro-6-methyl-N-(thiazol-4-yl)pyridine-2-sulfonamide trifluoroacetic acid salt] | – | 30 | – | –
– | O=S(=O)(Nc1cscn1)c1ccc(NCc2c(F)cccc2CN2C3CCC2CC3)c(C(F)(F)F)n1 [Example 47, 5-((2-((7-azabicyclo[2.2.1]heptan-7-yl)methyl)-6-fluorobenzyl)amino)-N-(thiazol-4-yl)-6-(trifluoromethyl)pyridine-2-sulfonamide trifluoroacetic acid salt] | 0.021 | 30 | 13.6 | –
0.017 | Cc1nc(S(=O)(=O)Nc2cscn2)c(F)cc1NCc1c(F)cccc1CN(C)C(C)(C)C [Example 48, 5-((2-((tert-butyl(methyl)amino)-methyl)-6-fluorobenzyl)amino)-3-fluoro-6-methyl-N-(thiazol-4-yl)pyridine-2-sulfonamide] | 0.084 | – | 30 | 30

From patent publication US10981905B2, “Heteroaryl-substituted sulfonamide compounds and their use as therapeutic agents” (Xenon Pharmaceuticals Inc., priority 2018, dated 2021)
